The record followed here is patent publication US20040126359A1, “Hedgehog” (priority 2001, published 2004).

The subject of assay [1] is CD4+ T-cells. As to the kind of experiment: Real time PCR of Shh, ptc, Gli1 and bcl-2 transcripts in sub-optimally activated CD4+ T-cells. It counts as cell-based, mouse. The procedure: CD4^+ T-cells were cultured as above in 48 well plates with and without addition of exogenous Shh or 5E1. At various time points (24 hr, 48 hr, 72 hr) post-activation, the CD4^+ T-cells were spun at 300 g for 7 mins then resuspended in lysis buffer provided as part of the RNeasy kit used for the RNA isolation (Qiagen Ltd, Crawley, UK). Any contaminating DNA was then digested by treating the RNA with DnaseI (Life Technologies) according to the manufacturer's instructions. In order to check that no contaminating DNA remained, a PCR was carried out using genomic β-actin primers (forward primer 5′-CCACCAACTGGGACACATG-3′ (SEQ ID NO:10) and reverse primer 5′-[…]-3′ (SEQ ID NO:11)) (MWG-Biotech AG). The PCR program was as follows: 35 cycles of 30 secs at 94° C., 1 min at 58° C., 2 mins at 72° C. followed by a 5 min 72° C. extension then 4° C. hold. This was carried out on a PTC-200 Peltier thermal cycler (MJ Research Inc., Massachusetts, USA).
Unless otherwise stated all materials for real time PCR were supplied by Applied Biosytems UK, Cheshire, UK. 400 ng of RNA was reverse transcribed using the Multiscribe RT kit. Samples were incubated for 10 min at 25° C., 40mins at 48° C. then 5 min at 95° C. to allow the reverse transcription to take place. cDNA samples were then diluted 1:5 in nuclease-free water (Promega). The PCR step was carried out using Taqman Universal PCR Mastermix, a primer/probe mix specific to the gene of interest and a primer/probe mix specific to 18s rRNA control reagent. The following primer/probe sequences were used:
These probes were all labelled with the fluorescent dye fam (6-carboxy-fluorescein). The primer/probe mix for 18S was supplied by Applied Biosystems which was labelled with the fluorescent dye vic™. Each cDNA sample was run in duplicate 25 μl volumes on a capped 96-well optical reaction plate. The plate was run in the ABI Prism 7700 sequence detector using SDS software. The PCR conditions were as follows: 50° C. for 2 min, 95° C. for 10 min then 40 cycles of 15 sec at 95° C. and 1 min at 60° C. The software then analysed the data and output a pair of ‘ct’ values for each sample. ‘Ct’ is the number of cycles needed to result in a signal crossing a set threshold. Each sample yielded two ct values, one for the gene of interest and one for the 18S house keeping control. The ct values were then transported to a Microsoft Excel spreadsheet and analysed to give a value representing the relative mRNA levels present for the gene of interest linearly as per the manufacturers instructions.
In order to analyse the mechanisms of Shh amplification of TCR mediated activation in CD4^+ T-cells, the kinetics of expression of components of the Shh signalling pathway and bcl-2 were analysed in activated CD4^+ T-cells in the presence and absence of exogenous Shh. CD4^+ T-cell cultures were set up as before, sub-optimally activated with anti-CD3/CD28 and Shh was added at t=0. RNA was extracted at 24, 48 and 72 hr post-activation. It has been reported that a 2× or greater increase in the transcription of any gene on at least 2 occasions is considered to be significant (Chtanova et al and Granucci et al).

The test system of the next assay is human CD8 T-cells. Put plainly: Proliferation of human CD8 T-cells cultured with Shh N-terminal active peptide (3H thymidine). It counts as cell-based. Conditions: activated CD8+ T-cells; dose dependent.
In assay [2] the test system is CD4+ T-cells. Put plainly: T-cell proliferation assay (3H-TdR incorporation). It counts as cell-based, mouse. The procedure:
Single cell suspensions from pooled C57BL/6 mouse spleens were applied to negative selection CD4^+ T-cell columns (R&D systems Europe Ltd, Abingdon, UK) as per manufacturers instructions. Purity was checked using FACS staining with an anti-CD4^FITC antibody and this ranged between 88-93%.
CD4^+ T-cells were cultured in RPMI 1640 medium (Life Technologies, Paisley, UK) supplemented with 10% FCS (Life Technologies), 2 mM L-glutamine, (Sigma, Dorset, UK), 20 μg/ml penicillin/streptomycin (Life Technologies) and […] 2-mercaptoethanol (Sigma). Anti-CD3/28 antibody activation was carried out at 2 concentrations, namely ‘sub-optimal’ (anti-CD3 at 0.25 μg/ml and anti-CD28 at 0.1 μg/ml) and ‘optimal’ (anti-CD3 at 1 μg/ml and anti-CD28 at 5 μg/ml). Tissue culture plates (Corning Inc., NY, USA) were coated with the anti-CD3 antibody for 90 min at 37° C. prior to addition of the CD4^+ T-cells. Recombinant mouse Shh amino-terminal peptide (R&D systems Europe Ltd, Abingdon, UK) was added into cultures at a concentration of 500 ng/ml. 5E1 antibody was used at either 20 μg/ml or 50 μg/ml and the isotype control was used at 20 μg/ml. The concentrations used were based on results of dose response curves (data not shown).
The CD4^+ T-cells were cultured as above in 96-well plates with and without addition of exogenous Shh or 5E1. They were pulsed after 48 hr of anti-CD3/28 activation with 20 μl of ^3H-TdR (50 μCi/ml) (Amersham), harvested at 72 hr and read on a betaplate scintillation counter (Wallac UK, Milton Keynes, UK).
Purified peripheral CD4^+ T-cells were cultured with and without the addition of the biologically active amino terminal Shh peptide. An initial titration curve established that 500 ng/ml was the optimal dose of the Shh peptide to enhance proliferation of peripheral CD4^+ T-cells (data not shown), and this concentration was used in all subsequent experiments. Shh was added to CD4^+ T-cells that were resting, maximally stimulated with anti-CD3 (1 μg/ml) and anti-CD28 (5 μg/ml) antibodies or sub-optimally activated with anti-CD3 (0.25 μg/ml) and anti-CD28 (0.1 μg/ml).

The next assay deals with human CD4 T-cells. Put plainly: Proliferation of human CD4 T-cells cultured with Shh N-terminal active peptide (3H thymidine). It counts as cell-based. Conditions: activated CD4+ T-cells; dose dependent.
[3] abbreviates: Shh peptide at t=0, 24, 48, 72 hr.

As to “Shh peptide: Recombinant mouse Shh amino-terminal peptide (R&D systems); biologically active N-terminal Sonic hedgehog fragment”, in the assay with CD4+ T-cells [1] (setting [3]), the “level of transcription of Gli1 vs media only activated cultures” value was “No difference” and the “level of transcription of ptc vs media only activated cultures” value is recorded as “No difference”. Also, the “transcription of Shh vs media only activated cultures” value in the assay on CD4+ T-cells [1] (Shh peptide at t=0, 24 hr) is “significantly reduced”. Moreover, the “transcription of bcl-2 vs media only activated cultures” value with CD4+ T-cells [1] (Shh peptide at t=0, 72 hr) is on record as “significantly increased”. In the assay on CD4+ T-cells [1] (in presence of exogenous Shh), the “Bcl-2 transcripts, time course normalised to 24 hr sample” value is “increased at 48 hr and at 72 hr”; the “Gli1 transcription, time course normalised to 24 hr sample” value was “increased at 48 hr and was maintained at 72 hr”; the “Shh transcription, time course normalised to 24 hr sample” value was “increased both at 48 hr and 72 hr”. The “ptc transcription, time course normalised to 24 hr sample” value in the assay with CD4+ T-cells [1] (in presence of exogenous Shh, 72 hr) is recorded as “marginally higher”. Moreover, the “incorporation of 3H-thymidine” value in the assay on human CD8 T-cells was “significantly enhances”. The “optimal dose to enhance proliferation of peripheral CD4+ T-cells” value in the assay with CD4+ T-cells [2] (initial titration curve (data not shown)) stood at 500 ng/mL. For the same substance, the “level of proliferation (3H-TdR incorporation)” value in the assay with CD4+ T-cells [2] (maximally stimulated (anti-CD3 1 μg/ml, anti-CD28 5 μg/ml), Shh peptide 500 ng/ml added at t=-24 hr or t=0) is “no significant difference”. In the assay on CD4+ T-cells [2] (resting CD4+ T-cells, Shh peptide 500 ng/ml), the degree of proliferation result is listed as “No significant difference”. For the same substance, the “increase in proliferation, range” value in the assay with CD4+ T-cells [2] (sub-optimal activation, Shh peptide 500 ng/ml 24 hr prior to activation) is reported as 16-63%. The “increase in proliferation, mean” value with CD4+ T-cells [2] (sub-optimal activation, Shh peptide 500 ng/ml 24 hr prior to activation, n=3, p<0.04) was 46%. The “increase in CD4+ T-cell proliferation, mean” value in the assay on CD4+ T-cells [2] (sub-optimal activation, Shh peptide 500 ng/ml at t=0, 72 hr, p<0.01) worked out at 101.6%. Besides, the “increase in CD4+ T-cell proliferation, range” value with CD4+ T-cells [2] (sub-optimal anti-CD3 0.25 μg/ml, anti-CD28 0.1 μg/ml, Shh peptide 500 ng/ml at t=0, 72 hr) is 76.2-128%. Also, the “incorporation of 3H-thymidine” value with human CD4 T-cells is reported as “significantly enhances”.
